Data on twelve compounds can be found in patent publication EP1803452A1, “ESTER DERIVATIVE AND PHARMACEUTICAL USE THEREOF” (Japan Tobacco, Inc., priority 2004, dated 2006).

Series [1] in a line: Stability test in buffer (pH 7.4). The format is physicochemical. Conditions: phosphate buffer/acetonitrile 7:3, 100 mM potassium phosphate buffer (pH 7.4) and acetonitrile 7:3 (v/v), LC/MS; for remaining at 10 min: 10 minutes at 37°C, read-out: Buf. remaining rate (%/10min); for remaining at 1 h: 60 minutes at 37°C, read-out: Buf. remaining rate (%/60min). The method, then:
In the tables, Buf. remaining rate was determined by stability test in buffer (pH 7.4) as described below. A sample dissolved in DMSO was mixed with a mixed solution of 100 mM potassium phosphate buffer and acetonitrile in the ratio of 7:3 (v/v). The mixture was incubated at 37°C for 0, 10, and 60 minutes, and acetonitrile containing formic acid (final concentration: 0.1%) was added thereto. The solution was centrifuged, and the concentration of the sample (unchanged form) in the supernatant was determined by high performance liquid chromatography/mass spectrometry (LC/MS). Based on the data obtained, Buf. remaining rate (%) was calculated according to the following equation. Buf.remaining rate(%) = amount of sample 0,10, or 60 minutes after incubation/amount of sample at zero time after incubation × 100 [formula]

Series [2] can be described thus: Metabolic stability test in plasma. The format is in vitro ADME, human. The conditions noted are these: LC/MS; for remaining at 10 min: unchanged form after 10 minutes at 37°C in human plasma, read-out: Remaining rate in human plasma (%/10min); for remaining at 1 h: unchanged form after 60 minutes at 37°C in human plasma, read-out: Remaining rate in human plasma (%/60min). The method, then:
A sample dissolved in DMSO was added to plasma of human or animal species (mouse and hamster). The solutions were incubated at 37°C for 0, 10 and 60 minutes, and acetonitrile containing formic acid (final concentration: 0.1%) was added thereto. The solutions were centrifuged, and the concentration of the sample (unchanged form) in the supernatant was determined by high performance liquid chromatography/mass spectrometry (LC/MS). Based on the data obtained, the remaining rate (%) was calculated according to the following equation. Remaining rate(%) = amount of sample 0,10, or 60 minutes after incubation/amount of sample at zero time after incubation × 100 [formula]
(§1) With respect to the compounds obtained in Working Examples according to the present invention (Compounds 1-1 to 1-115, 2-1, 3-1, 3-2, and 4-1 to 4-4), the results of the remaining rate in human liver S9 and plasma are shown in Tables 28 to 32.

Series [3] can be described thus: Metabolic stability test in liver S9. The format is in vitro ADME. The conditions noted are these: pH 7.4, human liver S9 2 mg protein/mL, LC/MS; for remaining at 10 min: unchanged form after 10 minutes at 37°C, read-out: Remaining rate in human liver S9 (%/10min); for remaining at 1 h: unchanged form after 60 minutes at 37°C, read-out: Remaining rate in human liver S9 (%/60min). On the procedure:
Human liver S9 (final concentration: 2 mg protein/mL), was suspended in 100 mM potassium phosphate buffer (pH 7.4, containing β-nicotinamide adenine dinucleotide phosphate: 1.3 mM, D-glucose-6- phosphate: 3.3 mM, magnesium chloride: 3.3 mM, glucose-6-phosphate dehydrogenase:0.4 U/mL). The suspension was mixed with a solution of a sample dissolved in DMSO. The solution was incubated at 37°C for 0, 10 and 60 minutes, and an acetonitrile containing formic acid (final concentration: 0.1%) was added thereto. The solutions were centrifuged, and the concentration of the sample (unchanged form) in the supernatant was determined by high performance liquid chromatography/mass spectrometry (LC/MS). Based on the data obtained, remaining rate (%) was calculated according to the following equation. Remaining rate(%) = amount of sample 0,10, or 60 minutes after [formula] incubation/amount of sample at zero time after incubation × 100 [formula]
as §1

Molecules are shown by their SMILES.

As to `COC(=O)c1cc(OC)c(OC(=O)CCCc2ccc(NC(=O)c3ccc(C)nc3-c3ccc(C(F)(F)F)cc3)c(C(=O)N(C)C)c2)c(OC)c1` [Compound 1-39, 4-[4-(3-dimethylcarbamoyl-4-{[6-methyl-2-(4-trifluoromethylphenyl)pyridine-3-carbonyl]amino}phenyl)butyryloxy]-3,5-dimethoxybenzoic acid methyl ester], the remaining at 10 min in series [1] came to 98%; in series [2], 0%; in series [3], 5%. In addition, the remaining at 1 h in series [1] was found to be 104%; in series [2], 0%; in series [3], 2%.

Take `CCOc1cc(C(=O)OC)cc(Cl)c1OC(=O)CCCc1ccc(NC(=O)c2ccc(C)nc2-c2ccc(C(F)(F)F)cc2)c(C(=O)N(C)C)c1` [Compound 1-40, 3-chloro-4-[4-(3-dimethylcarbamoyl-4-{[6-methyl-2-(4-trifluoromethylphenyl)pyridine-3-carbonyl]amino}phenyl)butyryloxy]-5-ethoxybenzoic acid methyl ester]: the remaining at 10 min in series [1] worked out at 100%; in series [2] it was 0%; in series [3] it was 5%. Besides, the remaining at 1 h amounted to 102% in series [1], 0% in series [2] and 0% in series [3].

Turning to `COC(=O)c1cc(OC)c(OC(=O)CCCc2ccc(NC(=O)c3ccc(C)nc3-c3ccc(C(F)(F)F)cc3)c(C(=O)N(C)C)c2)c(C(F)(F)F)c1` [Compound 1-47, 4-[4-(3-dimethylcarbamoyl-4-{[6-methyl-2-(4-trifluoromethylphenyl)pyridine-3-carbonyl]amino}phenyl)butyryloxy]-3-methoxy-5-trifluoromethylbenzoic acid methyl ester], the remaining at 10 min worked out at 96% in series [1], 0% in series [2] and 14% in series [3]. Also, the remaining at 1 h was 97% in series [1], 0% in series [2] and 0% in series [3].

For `CCOC(=O)c1ccc(OC(=O)CCCc2ccc(NC(=O)c3ccccc3-c3ccc(C(F)(F)F)cc3)c(C(=O)N(C)C)c2)cc1` [Compound 1-6, 4-(4-{3-dimethylcarbamoyl-4-[(4'-trifluoromethylbiphenyl-2-carbonyl)amino]phenyl}butyryloxy)benzoic acid ethyl ester], the results for the remaining at 10 min in series [1], in series [2] and in series [3] were 102%, 53% and 0%, respectively. In addition, the remaining at 1 h was found to be 102% in series [1], 0% in series [2] and 0% in series [3].

Regarding `COC(=O)COC(=O)c1ccc(OC(=O)CCCc2ccc(NC(=O)c3ccccc3-c3ccc(C(F)(F)F)cc3)c(C(=O)N(C)C)c2)cc1` [Compound 1-86, 4-[4-(3-dimethylcarbamoyl-4-{(4'-trifluoromethylbiphenyl-2-carbonyl)amino}phenyl)butyryloxy]benzoic acid methoxycarbonylmethyl ester], the remaining at 10 min in series [1] was found to be 99%; in series [2], 40%; in series [3] it was 0%. Also, the figures for the remaining at 1 h in series [1], in series [2] and in series [3] were 103%, 0% and 0%, respectively.

With `COc1cc(C(=O)OC(C)C)cc(OC)c1OC(=O)CCCc1ccc(NC(=O)c2ccc(C)nc2-c2ccc(C(F)(F)F)cc2)c(C(=O)N(C)C)c1` [Compound 1-44, 4-[4-(3-dimethylcarbamoyl-4-{[6-methyl-2-(4-trifluoromethylphenyl)pyridine-3-carbonyl]amino}phenyl)butyryloxy]-3,5-dimethoxybenzoic acid isopropyl ester], the remaining at 10 min came out at 99% in series [1], 13% in series [2] and 12% in series [3]. Further, the remaining at 1 h in series [1] is 100%; in series [2], 0%; in series [3] it was 4%.

With `CC(C)OC(=O)c1ccc(OC(=O)CCCc2ccc(NC(=O)c3cccnc3-c3ccc(C(F)(F)F)cc3)c(C(=O)N(C)C)c2)cc1` [Compound 1-31, 4-[4-(3-dimethylcarbamoyl-4-{[2-(4-trifluoromethylphenyl)pyridine-3-carbonyl]amino}phenyl)butyryloxy]benzoic acid isopropyl ester], the values for the remaining at 10 min in series [1], in series [2] and in series [3] were 101%, 26% and 0%, respectively. Also, the remaining at 1 h in series [1] amounted to 102%; in series [2] it was 0%; in series [3] it was 0%.

Turning to `COC(=O)c1cc(Cl)c(OC(=O)CCCc2ccc(NC(=O)c3ccc(C)nc3-c3ccc(C(F)(F)F)cc3)c(C(=O)N(C)C)c2)c(C(C)C)c1` [Compound 1-74, 3-chloro-4-[4-(3-dimethylcarbamoyl-4-{[6-methyl-2-(4-trifluoromethylphenyl)pyridine-3-carbonyl]amino}phenyl)butyryloxy]-5-isopropylbenzoic acid methyl ester], the remaining at 10 min in series [1] is 102%; in series [2], 77%; in series [3], 24%. In addition, the values for the remaining at 1 h in series [1], in series [2] and in series [3] were 101%, 19% and 9%, respectively.

For the compound `COC(=O)c1ccc(OC(=O)CCCc2ccc(NC(=O)c3ccccc3-c3ccc(C(F)(F)F)cc3)c(C(=O)N(C)C)c2)cc1` [Compound 1-5, 4-(4-(3-dimethylcarbamoyl-4-[(4'-trifluoromethylbiphenyl-2-carbonyl)amino]phenyl}butyryloxy)benzoic acid methyl ester], the remaining at 10 min in series [1] was determined as 100%; in series [2] it was 11%; in series [3], 0%. In addition, the figures for the remaining at 1 h in series [1], in series [2] and in series [3] were 101%, 0% and 0%, respectively.

On to `CC(=O)N1CCC(OC(=O)c2ccc(OC(=O)CCCc3ccc(NC(=O)c4ccccc4-c4ccc(C(F)(F)F)cc4)c(C(=O)N(C)C)c3)cc2)CC1` [Compound 1-109, 4-[4-(3-dimethylcarbamoyl-4-{(4'-trifluoromethylbiphenyl-2-carbonyl)amino}phenyl)butyryloxy]benzoic acid 1-acetylpiperidin-4-yl ester], for which the remaining at 10 min stood at 99% in series [1], 50% in series [2] and 0% in series [3]. Further, the remaining at 1 h in series [1] is 99%; in series [2], 3%; in series [3], 0%.

In the case of `CC(C)OC(=O)c1ccc(OC(=O)CCCc2ccc(NC(=O)c3ccncc3-c3ccc(C(F)(F)F)cc3)c(C(=O)N(C)C)c2)cc1` [Compound 1-29, 4-[4-(3-dimethylcarbamoyl-4-{[3-(4-trifluoromethylphenyl)pyridine-4-carbonyl]amino}phenyl)butyryloxy]benzoic acid isopropyl ester], the remaining at 10 min in series [1] came out at 98%; in series [2], 41%; in series [3] it was 1%. For the same compound, the values for the remaining at 1 h in series [1], in series [2] and in series [3] were 98%, 0% and 0%, respectively.

Take `CN(C)C(=O)c1cc(CCCC(=O)Oc2ccc(C(=O)OCCCOCc3ccccc3)cc2)ccc1NC(=O)c1ccccc1-c1ccc(C(F)(F)F)cc1` [Compound 1-90, 4-[4-(3-dimethylcarbamoyl-4-{(4'-trifluoromethylbiphenyl-2-carbonyl)amino}phenyl)butyryloxy]benzoic acid 3-benzyloxypropyl ester]: the remaining at 10 min in series [1] came out at 102%; in series [2], 50%; in series [3] it was 7%. In addition, the remaining at 1 h was found to be 103% in series [1], 0% in series [2] and 0% in series [3].
